Columns and labels:
[1] = Skin temperature by thermal camera after application of creams on the back; format: in vivo, human; details: 1% in cream
Method: For this study, the cooling effect of 5 compositions containing different cooling agents is evaluated in vivo according to the following protocol.
22 female subjects aged from 18 to 63 were selected. On the back of each subject, between the two scapulas, six areas of 3 cm×2.5 cm are delimited. On 5 areas chosen each time randomly, 15 mg of the compositions to be tested are applied. Nothing is applied onto the sixth area (i.e. control).
From the time of application of the creams (T0), the skin temperature of the different zones is measured on each subject using a thermal camera (Thermovision SC6000HS (Flirsystems)—resolution 640×512—frequency 125 Hz) at the following times: T0, T0+15 s, T0+30 s, T0+45 s, T0+1 min, T0+1 min30 s, T0+2 min, T0+3 min, T0+4 min, T0+5 min, T0+6 min, T0+8 min and T0+10 min. The measurements are performed at 21° C.±1.5° C., the subject lying on their stomach and motionless. The temperatures are measured with an accuracy of around 0.10° C.
A variance test (ANOVA) is used to compile and validate the results. […]
If these two conditions are met, the statistical analysis allowing comparing the parameters measured at the different times is conducted by a one-factor variance analysis (ANOVA) test on repeated measurements. […]

[2] = Cooling effect of creams rated on a 0 to 3 scale after application onto the forearms; format: in vivo, human; details: 1% in cream, forearm sensory score
Method: To measure the cooling effect, 100 mg of one of the creams 1 to 4 or of a placebo are applied onto the inner side of both forearms of persons who have agreed to test the product. After one minute, each participant is asked to rate the cooling effect on a scale of 0 to 3 (i.e. score), with 3 being the maximum effect.
Each cream (including the placebo) is applied randomly and blindly to the forearms of 17 people.

Cc1coc2c1C(=O)CC(C)C2 (stereo not drawn) [evodone, 6-dimethyl-6,7-dihydro-5H-1-benzofuran-4-one]
Cooling effect compared with menthyl lactate, citriodiol or cubebol [1]: cooling effect similar to that which can be provided by molecules such as menthyl lactate
Cooling effect compared with citriodiol or cubebol [2]: cooling effect similar to that which can be provided by molecules such as citriodiol or cubebol
Cooling effect compared with menthyl lactate (Frescolat ML) [2]: significantly greater than that obtained with menthyl lactate

— US12133909B2, “Use of evodone or a derivative thereof as a cooling agent” (ROBERTET S.A., priority 2019, dated 2024)
